Values after ≈ are worked out from the molar mass of the structure shown. “Also recorded” adds a separate entry of the source. Read-outs that look alike come from different tables or passages of the source. No end group written: not given here.
Columns and labels:
[1] = test system: E. coli ATCC 25922 and colistin-resistant E. coli clinical isolates; conditions: for MICs against colistin-resistant E. coli clinical isolates: range over ten isolates
Experimental: (§1) The MICs of BP203 and MAP-0403 J-2 against clinically colistin-resistant E. coli and K. pneumoniae isolates were determined using the broth microdilution method, according to CLSI recommendations. Briefly, the peptides were subjected to serial dilution in cation-adjusted Mueller-Hinton broth (CAMHB) and added to a 96-well microtiter plate (Wuxi NEST Biotechnology, Wuxi, China). Subsequently, bacterial suspensions from freshly mid-log phase cultures were diluted to 10^6 CFU/mL with CAMHB, and introduced to each well containing the peptides.

[2] = test system: K. pneumoniae ATCC BAA-1706 and colistin-resistant K. pneumoniae clinical isolates; conditions: for MIC against colistin-resistant K. pneumoniae clinical isolates: range over ten isolates
Experimental: as §1

sheep red blood cells = test: Hemolytic activity assay; format: cell-based; conditions: at concentrations as high as 200 μg/mL
Experimental: Sheep erythrocytes were employed to assess the hemolytic activity of BP203 and MAP-0403 J-2, following previously described with some modifications. Briefly, defibrinated sheep red blood cells (sRBCs) were centrifuged at 1,000× g, 4°C for 10 min. The packed sRBCs underwent three times washes with phosphate buffer saline (PBS), at pH 7.4, and were subsequently suspended in PBS to achieve a concentration of 4% (v/v). […] Following an incubation period of 1 h at 37°C, the mixtures were centrifuged at room temperature, 1,000× g for 10 min. The supernatants were collected and transferred to a 96-well microplate. Next, absorbance measurement was taken at 540 nm using a microplate reader (Tecan Group, Zurich, Switzerland). Blank, negative and positive controls were established using sRBCs incubated with PBS alone, BSA solution, and 0.1% Triton X-100, respectively. […] The percentage of hemolytic activity was calculated with the following equation: Hemolysis (%) = {(Sample absorbance—PBS absorbance)/(0.1% Triton X-100 absorbance—PBS absorbance)} × 100.

[3] = test system: MRC-5 (CCL-171) normal lung fibroblast cells; test: Cytotoxicity assay using MTT; format: cell-based, human; conditions: for Cell viability at highest concentration: 200 μg/mL, 24 h; for IC50: 24 h exposure
Experimental: MRC-5 (CCL-171) cell line, a representative of normal lung fibroblast cells, was used to investigate the cytotoxic effects of two AMPs, BP203 and MAP-0403 J-2. The cells were grown in Dulbecco’s Modified Eagle Medium (DMEM, Cytiva Life Sciences, Marlborough, MA, USA), supplemented with 10% fetal bovine serum (FBS), 1% penicillin (10,000 U/mL) and streptomycin (10,000 μg/mL) (Gibco, Waltham, MA, USA). 2×10^4 cells were seeded into each well of a 96-well plate and allowed to adhere for 24 h. Then, these cells were subjected to exposure to a medium containing a prepared two-fold serial dilution of BP203 or MAP-0403 J-2. […] 3-(4,5-Dimethylthiazol-2-yl)-2,5-Diphenyltetrazolium Bromide (MTT) was introduced into each well to achieve a concentration of 0.5 mg/mL followed by 4 h. incubation. Subsequently, formazan crystals were dissolved through the addition of 100 μL of a solubilizing solution composed of 10% SDS in 0.1 N HCl and the developed color was measured using a microtiter plate reader at an optical density (OD) of 570 nm. Cell viability was calculated as follows: (ODsample/ODcontrol) × 100.

[4] = cited from earlier work
Source text: The stability of AMPs is crucial for storage and applications. Temperature and pH are critical parameters impacting AMP stability. In addition, the good stability of AMPs to physiological salts and serum has been considered a desirable property for clinical applications. In this study, BP203 and MAP-0403 J-2 retained antibacterial activity under elevated temperatures, various pH conditions, and in the presence of physiological salts and serum environment. […] The hemolytic activity of BP203 at 150 μM (~300 μg/mL) wa ...

Compound: CC[C@H](C)[C@H](NC(=O)[C@H](CCCCN)NC(=O)[C@H](CCCCN)NC(=O)[C@H](Cc1ccccc1)NC(=O)[C@H](CC(C)C)NC(=O)[C@H](CCCCN)NC(=O)[C@@H](N)CCCCN)C(=O)N[C@@H](CC(C)C)C(=O)N[C@@H](CCCNC(=N)N)C(=O)N[C@@H](Cc1ccc(O)cc1)C(=O)N[C@@H](CC(C)C)C(N)=O [BP203]
- MBC ([1]; E. coli ATCC 25922): 4 µg/mL (≈ 2.76 µM)
- MIC ([1]; E. coli ATCC 25922): 4 µg/mL (≈ 2.76 µM)
- MBC ([1]; EC-01): 2 µg/mL (≈ 1.38 µM)
- MIC ([1]; EC-01): 2 µg/mL (≈ 1.38 µM)
- MBC ([1]; EC-02): 8 µg/mL (≈ 5.52 µM)
- MIC ([1]; EC-02): 8 µg/mL (≈ 5.52 µM)
- MBC ([1]; EC-03): 2 µg/mL (≈ 1.38 µM)
- MIC ([1]; EC-03): 2 µg/mL (≈ 1.38 µM)
- MBC ([1]; EC-04): 4 µg/mL (≈ 2.76 µM)
- MIC ([1]; EC-04): 2 µg/mL (≈ 1.38 µM)
- MBC ([1]; EC-05): 8 µg/mL (≈ 5.52 µM)
- MIC ([1]; EC-05): 8 µg/mL (≈ 5.52 µM)
- MBC ([1]; EC-06): 2 µg/mL (≈ 1.38 µM)
- MIC ([1]; EC-06): 2 µg/mL (≈ 1.38 µM)
- MBC ([1]; EC-07): 8 µg/mL (≈ 5.52 µM)
- MIC ([1]; EC-07): 8 µg/mL (≈ 5.52 µM)
- MBC ([1]; EC-08): 16 µg/mL (≈ 11 µM)
- MIC ([1]; EC-08): 16 µg/mL (≈ 11 µM)
- MBC ([1]; EC-09): 2 µg/mL (≈ 1.38 µM)
- MIC ([1]; EC-09): 2 µg/mL (≈ 1.38 µM)
- MBC ([1]; EC-10): 8 µg/mL (≈ 5.52 µM)
- MIC ([1]; EC-10): 8 µg/mL (≈ 5.52 µM)
- MICs against colistin-resistant E. coli clinical isolates [1]: 2 to 16 µg/mL
- MIC for the majority of (most) colistin-resistant K. pneumoniae isolates [2]: > 128 µg/mL
- MBC ([2]; K. pneumoniae ATCC BAA-1706): 4 µg/mL (≈ 2.76 µM)
- MIC ([2]; K. pneumoniae ATCC BAA-1706): 4 µg/mL (≈ 2.76 µM)
- MBC ([2]; KP-01): 16 µg/mL (≈ 11 µM)
- MIC ([2]; KP-01): 16 µg/mL (≈ 11 µM)
- MBC ([2]; KP-02): 256 µg/mL (≈ 177 µM)
- MIC ([2]; KP-02): 256 µg/mL (≈ 177 µM)
- MBC ([2]; KP-03): 128 µg/mL (≈ 88.3 µM)
- MIC ([2]; KP-03): 128 µg/mL (≈ 88.3 µM)
- MBC ([2]; KP-04): 512 µg/mL (≈ 353 µM)
- MIC ([2]; KP-04): 512 µg/mL (≈ 353 µM)
- MBC ([2]; KP-05): 32 µg/mL (≈ 22.1 µM)
- MIC ([2]; KP-05): 32 µg/mL (≈ 22.1 µM)
- MBC ([2]; KP-06): 256 µg/mL (≈ 177 µM)
- MIC ([2]; KP-06): 256 µg/mL (≈ 177 µM)
- MBC ([2]; KP-07): 128 µg/mL (≈ 88.3 µM)
- MIC ([2]; KP-07): 128 µg/mL (≈ 88.3 µM)
- MBC ([2]; KP-08): 256 µg/mL (≈ 177 µM)
- MIC ([2]; KP-08): 256 µg/mL (≈ 177 µM)
- MBC ([2]; KP-09): 512 µg/mL (≈ 353 µM)
- MIC ([2]; KP-09): 512 µg/mL (≈ 353 µM)
- MBC ([2]; KP-10): 512 µg/mL (≈ 353 µM)
- MIC ([2]; KP-10): 512 µg/mL (≈ 353 µM)
- MIC against colistin-resistant K. pneumoniae clinical isolates [2]: 16 to 512 µg/mL
- Hemolysis (in words) (sheep red blood cells): negligible hemolysis; also recorded: no hemolytic activity
- Cell viability at highest concentration [3]: 56.01%
- IC50 [3]: > 200 µg/mL
- Hemolytic activity ([4]; at 150 μM (~300 μg/mL)): 31%

Compound: KWLRRPWRRWR-NH2 [MAP-0403 J-2]
- MBC ([1]; E. coli ATCC 25922): 16 µg/mL
- MIC ([1]; E. coli ATCC 25922): 16 µg/mL
- MBC ([1]; EC-01): 32 µg/mL
- MIC ([1]; EC-01): 16 µg/mL
- MBC ([1]; EC-02): 32 µg/mL
- MIC ([1]; EC-02): 32 µg/mL
- MBC ([1]; EC-03): 16 µg/mL
- MIC ([1]; EC-03): 8 µg/mL
- MBC ([1]; EC-04): 8 µg/mL
- MIC ([1]; EC-04): 8 µg/mL
- MBC ([1]; EC-05): 64 µg/mL
- MIC ([1]; EC-05): 32 µg/mL
- MBC ([1]; EC-06): 32 µg/mL
- MIC ([1]; EC-06): 32 µg/mL
- MBC ([1]; EC-07): 32 µg/mL
- MIC ([1]; EC-07): 32 µg/mL
- MBC ([1]; EC-08): 64 µg/mL
- MIC ([1]; EC-08): 32 µg/mL
- MBC ([1]; EC-09): 32 µg/mL
- MIC ([1]; EC-09): 8 µg/mL
- MBC ([1]; EC-10): 64 µg/mL
- MIC ([1]; EC-10): 32 µg/mL
- MICs against colistin-resistant E. coli clinical isolates [1]: 8 to 32 µg/mL
- MBC ([2]; K. pneumoniae ATCC BAA-1706): 16 µg/mL
- MIC ([2]; K. pneumoniae ATCC BAA-1706): 16 µg/mL
- MBC ([2]; KP-01): >512 µg/mL
- MIC ([2]; KP-01): >512 µg/mL
- MBC ([2]; KP-02): 256 µg/mL
- MIC ([2]; KP-02): 128 µg/mL
- MBC ([2]; KP-03): >512 µg/mL
- MIC ([2]; KP-03): >512 µg/mL
- MBC ([2]; KP-04): >512 µg/mL
- MIC ([2]; KP-04): >512 µg/mL
- MBC ([2]; KP-05): 512 µg/mL
- MIC ([2]; KP-05): 256 µg/mL
- MBC ([2]; KP-06): >512 µg/mL
- MIC ([2]; KP-06): >512 µg/mL
- MBC ([2]; KP-07): >512 µg/mL
- MIC ([2]; KP-07): >512 µg/mL
- MBC ([2]; KP-08): >512 µg/mL
- MIC ([2]; KP-08): >512 µg/mL
- MBC ([2]; KP-09): >512 µg/mL
- MIC ([2]; KP-09): >512 µg/mL
- MBC ([2]; KP-10): >512 µg/mL
- MIC ([2]; KP-10): >512 µg/mL
- MIC against colistin-resistant K. pneumoniae clinical isolates [2]: ≥ 512 µg/mL
- Hemolysis (in words) (sheep red blood cells): negligible hemolysis; also recorded: no hemolytic activity
- Cell viability at highest concentration [3]: 73.43%
- IC50 [3]: > 200 µg/mL
- Hemolytic activity ([4]; at 100 μM (~678 μg/mL)): 3.4%

— article PMC10653547, “Synergistic effect of two antimicrobial peptides, BP203 and MAP-0403 J-2 with conventional antibiotics against colistin-resistant Escherichia coli and Klebsiella pneumoniae clinical isolates” (PLOS ONE, 2023)
